Laboratory results: paper PMC9518248, “Inhibition of Toxoplasma gondii by 1,2,4-triazole-based compounds: marked improvement in selectivity relative to the standard therapy pyrimethamine and sulfadiazine” (Journal of Enzyme Inhibition and Medicinal Chemistry, 2022)
Converted amounts (≈) assume the structure as drawn.

Tested on: not given
Test: not given
Details: not given

| Structure (SMILES) | melting point [°C] |
| --- | --- |
| Cc1nc[nH]c1-c1n[nH]c(=S)n1-c1ccc(I)cc1 [12b, 4–(4-iodophenyl)-5–(4-methylimidazol-5-yl)-1,2,4-triazole-3-thione] | 290 |
| Cc1nc[nH]c1-c1n[nH]c(=S)n1-c1ccc(N(C)C)cc1 [25b, 5–(4-methylimidazol-5-yl)-4–(4-dimethyloaminophenyl)-1,2,4-triazole-3-thione] | 288.2 |
| COc1cccc(-n2c(-c3[nH]cnc3C)n[nH]c2=S)c1 [19b, 4–(3-methoxyphenyl)-5–(4-methylimidazol-5-yl)-1,2,4-triazole-3-thione] | 228.8 |
| Cc1nc[nH]c1-c1n[nH]c(=S)n1-c1ccc(Cl)cc1 [6b, 4–(4-chlorophenyl)-5–(4-methylimidazol-5-yl)-1,2,4-triazole-3-thione] | 255.8 |
| Cc1ccccc1-n1c(-c2[nH]cnc2C)n[nH]c1=S [14b, 5–(4-methylimidazol-5-yl)-4–(2-methylphenyl)-1,2,4-triazole-3-thione] | 249.9 |
| Cc1nc[nH]c1-c1n[nH]c(=S)n1-c1c(C(C)C)cccc1C(C)C [24b, 4–(2,6-diisopropylphenyl)-5–(4-methylimidazol-5-yl)-1,2,4-triazole-3-thione] | 251.9 |
| Cc1nc[nH]c1-c1n[nH]c(=S)n1-c1ccccc1Br [7b, 4–(2-bromophenyl)-5–(4-methylimidazol-5-yl)-1,2,4-triazole-3-thione] | 235.6 |
| COc1ccccc1-n1c(-c2[nH]cnc2C)n[nH]c1=S [18b, 4–(2-methoxyphenyl)-5–(4-methylimidazol-5-yl)-1,2,4-triazole-3-thione] | 145.2 |
| CC(=O)c1cccc(-n2c(-c3[nH]cnc3C)n[nH]c2=S)c1 [23b, 4–(3-acetylphenyl)-5–(4-methylimidazol-5-yl)-1,2,4-triazole-3-thione] | 151.9 |
| Cc1nc[nH]c1-c1n[nH]c(=S)n1-c1ccc(Br)cc1 [9b, 4–(4-bromophenyl)-5–(4-methylimidazol-5-yl)-1,2,4-triazole-3-thione] | 265.9 |
| Cc1nc[nH]c1-c1n[nH]c(=S)n1-c1cc(F)ccc1F [13b, 4–(2,5-difluorophenyl)-5–(4-methylimidazol-5-yl)-1,2,4-triazole-3-thione] | 253.9 |
| Cc1nc[nH]c1-c1n[nH]c(=S)n1-c1cccc(F)c1 [2b, 4–(3-fluorophenyl)-5–(4-methylimidazol-5-yl)-1,2,4-triazole-3-thione] | 284 |

Tested on: T. gondii RH-GFP
Test: not given
Design: method as in PMID 31022878, PMID 30744161
Details: CC30/IC50Tg; thiosemicarbazides 1a–27a; cited from earlier work

| Structure (SMILES) | SI |
| --- | --- |
| Cc1nc[nH]c1C(=O)NNC(=S)Nc1ccccc1Cl [4a] | 4.02 |
| Cc1nc[nH]c1C(=O)NNC(=S)Nc1ccccc1I [10a] | 5.00 |
| Cc1nc[nH]c1C(=O)NNC(=S)Nc1cccc(F)c1 [2a] | 1.10 |
| COc1cccc(NC(=S)NNC(=O)c2[nH]cnc2C)c1 [19a] | 2.08 |
| Cc1nc[nH]c1C(=O)NNC(=S)Nc1ccc(Br)cc1 [9a] | 3.36 |
| Cc1ccc(NC(=S)NNC(=O)c2[nH]cnc2C)cc1Cl [17a] | 1.51 |
| Cc1nc[nH]c1C(=O)NNC(=S)Nc1ccccc1F [1a] | 4.21 |
| COc1ccccc1NC(=S)NNC(=O)c1[nH]cnc1C [18a] | 4.17 |
| Cc1nc[nH]c1C(=O)NNC(=S)Nc1ccc(F)cc1 [3a] | 2.41 |
| Cc1nc[nH]c1C(=O)NNC(=S)Nc1cccc(Br)c1 [8a] | 6.15 |

Same assay, conditions: T. gondii infected Hs27 cells; thiosemicarbazides 1a–27a; cited from earlier work

| Structure (SMILES) | IC50Tg [µg/mL] |
| --- | --- |
| Cc1nc[nH]c1C(=O)NNC(=S)Nc1ccccc1Cl [4a] | 35.61 (≈ 115 µM) |
| Cc1nc[nH]c1C(=O)NNC(=S)Nc1ccccc1I [10a] | 20.31 (≈ 50.6 µM) |
| Cc1nc[nH]c1C(=O)NNC(=S)Nc1cccc(F)c1 [2a] | 113.45 (≈ 387 µM) |
| COc1cccc(NC(=S)NNC(=O)c2[nH]cnc2C)c1 [19a] | 79.65 (≈ 261 µM) |
| Cc1nc[nH]c1C(=O)NNC(=S)Nc1ccc(Br)cc1 [9a] | 14.57 (≈ 41.1 µM) |
| Cc1ccc(NC(=S)NNC(=O)c2[nH]cnc2C)cc1Cl [17a] | 18.62 (≈ 57.5 µM) |
| Cc1nc[nH]c1C(=O)NNC(=S)Nc1ccccc1F [1a] | 68.83 (≈ 235 µM) |
| COc1ccccc1NC(=S)NNC(=O)c1[nH]cnc1C [18a] | 33.11 (≈ 108 µM) |
| Cc1nc[nH]c1C(=O)NNC(=S)Nc1ccc(F)cc1 [3a] | 110.31 (≈ 376 µM) |
| Cc1nc[nH]c1C(=O)NNC(=S)Nc1cccc(Br)c1 [8a] | 15.64 (≈ 44.2 µM) |

Tested on: T. gondii RH-GFP
Test: Antiparasitic assay: T. gondii RH-GFP proliferation in Hs27 cells
Type: cell-based, Toxoplasma gondii
Details: Toxoplasma gondii; T. gondii RH-GFP in Hs27 cells, 96 h; values above highest tested concentration extrapolated; read-out: IC50Tg

| Structure (SMILES) | IC50 [µg/mL] |
| --- | --- |
| Cc1nc[nH]c1-c1n[nH]c(=S)n1-c1ccc(I)cc1 [12b, 4–(4-iodophenyl)-5–(4-methylimidazol-5-yl)-1,2,4-triazole-3-thione] | 99.1 (≈ 259 µM) |
| Cc1nc[nH]c1-c1n[nH]c(=S)n1-c1ccc(N(C)C)cc1 [25b, 5–(4-methylimidazol-5-yl)-4–(4-dimethyloaminophenyl)-1,2,4-triazole-3-thione] | 285 (≈ 950 µM) |
| COc1cccc(-n2c(-c3[nH]cnc3C)n[nH]c2=S)c1 [19b, 4–(3-methoxyphenyl)-5–(4-methylimidazol-5-yl)-1,2,4-triazole-3-thione] | 96.8 (≈ 337 µM) |
| Cc1nc[nH]c1-c1n[nH]c(=S)n1-c1ccc(Cl)cc1 [6b, 4–(4-chlorophenyl)-5–(4-methylimidazol-5-yl)-1,2,4-triazole-3-thione] | 267 (≈ 914 µM) |
| Cc1ccccc1-n1c(-c2[nH]cnc2C)n[nH]c1=S [14b, 5–(4-methylimidazol-5-yl)-4–(2-methylphenyl)-1,2,4-triazole-3-thione] | 77.3 (≈ 285 µM) |
| Cc1nc[nH]c1-c1n[nH]c(=S)n1-c1c(C(C)C)cccc1C(C)C [24b, 4–(2,6-diisopropylphenyl)-5–(4-methylimidazol-5-yl)-1,2,4-triazole-3-thione] | 61.7 (≈ 181 µM) |
| Cc1nc[nH]c1-c1n[nH]c(=S)n1-c1ccccc1Br [7b, 4–(2-bromophenyl)-5–(4-methylimidazol-5-yl)-1,2,4-triazole-3-thione] | 66.7 (≈ 199 µM) |
| COc1ccccc1-n1c(-c2[nH]cnc2C)n[nH]c1=S [18b, 4–(2-methoxyphenyl)-5–(4-methylimidazol-5-yl)-1,2,4-triazole-3-thione] | 93.2 (≈ 324 µM) |
| CC(=O)c1cccc(-n2c(-c3[nH]cnc3C)n[nH]c2=S)c1 [23b, 4–(3-acetylphenyl)-5–(4-methylimidazol-5-yl)-1,2,4-triazole-3-thione] | 141 (≈ 469 µM) |
| Cc1nc[nH]c1-c1n[nH]c(=S)n1-c1ccc(Br)cc1 [9b, 4–(4-bromophenyl)-5–(4-methylimidazol-5-yl)-1,2,4-triazole-3-thione] | 153 (≈ 455 µM) |
| Cc1nc[nH]c1-c1n[nH]c(=S)n1-c1cc(F)ccc1F [13b, 4–(2,5-difluorophenyl)-5–(4-methylimidazol-5-yl)-1,2,4-triazole-3-thione] | 224 (≈ 765 µM) |
| Cc1nc[nH]c1-c1n[nH]c(=S)n1-c1cccc(F)c1 [2b, 4–(3-fluorophenyl)-5–(4-methylimidazol-5-yl)-1,2,4-triazole-3-thione] | 103 (≈ 374 µM) |

Same assay, conditions: selectivity index, CC30 (L929)/IC50Tg

| Structure (SMILES) | SI |
| --- | --- |
| Cc1nc[nH]c1-c1n[nH]c(=S)n1-c1ccc(I)cc1 [12b, 4–(4-iodophenyl)-5–(4-methylimidazol-5-yl)-1,2,4-triazole-3-thione] | 4.88 |
| Cc1nc[nH]c1-c1n[nH]c(=S)n1-c1ccc(N(C)C)cc1 [25b, 5–(4-methylimidazol-5-yl)-4–(4-dimethyloaminophenyl)-1,2,4-triazole-3-thione] | 2.65 |
| Cc1nc[nH]c1-c1n[nH]c(=S)n1-c1ccc(Cl)cc1 [6b, 4–(4-chlorophenyl)-5–(4-methylimidazol-5-yl)-1,2,4-triazole-3-thione] | 1.73 |
| Cc1ccccc1-n1c(-c2[nH]cnc2C)n[nH]c1=S [14b, 5–(4-methylimidazol-5-yl)-4–(2-methylphenyl)-1,2,4-triazole-3-thione] | 31.23 |
| Cc1nc[nH]c1-c1n[nH]c(=S)n1-c1c(C(C)C)cccc1C(C)C [24b, 4–(2,6-diisopropylphenyl)-5–(4-methylimidazol-5-yl)-1,2,4-triazole-3-thione] | 2.35 |
| Cc1nc[nH]c1-c1n[nH]c(=S)n1-c1ccccc1Br [7b, 4–(2-bromophenyl)-5–(4-methylimidazol-5-yl)-1,2,4-triazole-3-thione] | 31.72 |
| CC(=O)c1cccc(-n2c(-c3[nH]cnc3C)n[nH]c2=S)c1 [23b, 4–(3-acetylphenyl)-5–(4-methylimidazol-5-yl)-1,2,4-triazole-3-thione] | 17.79 |
| Cc1nc[nH]c1-c1n[nH]c(=S)n1-c1ccc(Br)cc1 [9b, 4–(4-bromophenyl)-5–(4-methylimidazol-5-yl)-1,2,4-triazole-3-thione] | 1.48 |
| Cc1nc[nH]c1-c1n[nH]c(=S)n1-c1cc(F)ccc1F [13b, 4–(2,5-difluorophenyl)-5–(4-methylimidazol-5-yl)-1,2,4-triazole-3-thione] | 11.14 |
| Cc1nc[nH]c1-c1n[nH]c(=S)n1-c1cccc(F)c1 [2b, 4–(3-fluorophenyl)-5–(4-methylimidazol-5-yl)-1,2,4-triazole-3-thione] | 24.26 |

Tested on: mouse fibroblasts L929 cells
Test: not given
Design: method as in PMID 31022878, PMID 30744161
Details: thiosemicarbazides 1a–27a; cited from earlier work

| Structure (SMILES) | CC30 [µg/mL] |
| --- | --- |
| Cc1nc[nH]c1C(=O)NNC(=S)Nc1ccccc1Cl [4a] | 143.15 (≈ 462 µM) |
| Cc1nc[nH]c1C(=O)NNC(=S)Nc1ccccc1I [10a] | 101.58 (≈ 253 µM) |
| Cc1nc[nH]c1C(=O)NNC(=S)Nc1cccc(F)c1 [2a] | 125.17 (≈ 427 µM) |
| COc1cccc(NC(=S)NNC(=O)c2[nH]cnc2C)c1 [19a] | 165.96 (≈ 543 µM) |
| Cc1nc[nH]c1C(=O)NNC(=S)Nc1ccc(Br)cc1 [9a] | 48.89 (≈ 138 µM) |
| Cc1ccc(NC(=S)NNC(=O)c2[nH]cnc2C)cc1Cl [17a] | 28.18 (≈ 87 µM) |
| Cc1nc[nH]c1C(=O)NNC(=S)Nc1ccccc1F [1a] | 289.6 (≈ 987 µM) |
| COc1ccccc1NC(=S)NNC(=O)c1[nH]cnc1C [18a] | 138.04 (≈ 452 µM) |
| Cc1nc[nH]c1C(=O)NNC(=S)Nc1ccc(F)cc1 [3a] | 266.01 (≈ 907 µM) |
| Cc1nc[nH]c1C(=O)NNC(=S)Nc1cccc(Br)c1 [8a] | 96.12 (≈ 271 µM) |

Tested on: mouse fibroblasts L929 cells
Test: Cell viability assay (MTT, ISO 10993-5)
Type: cell-based
Details: 24 h, highest dilution causing 30% or higher destruction of cells
Procedure: Culture medium RPMI 1640, without phenol red (Biowest, Nuaille, France) supplemented with 10% FBS, 2 mM […] penicillin, 100 μg/mL streptomycin were used. Briefly, 1 × 10^4/well of L929 cells were placed in 96-well plates and incubated for 24 h at 37 °C and 10% CO2. Afterwards, the old culture medium was replaced with 100 μL of the compound, drug or inhibitor, diluted in culture medium and the cells treated for 24 h. Additionally, cells were treated with 0.03-4.0% concentration of DMSO as the solvent (data not shown). Then, 50 μL of 1 mg/mL of MTT solution in RPMI 1640 without phenol red was added to each well and incubated for 2 h at 37 °C and 10% CO2. Next, cell culture medium was aspirated carefully and 150 μL of DMSO was added to each well, and the plates were gently mixed. Then, 25 μL 0.1 M glycine buffer (pH 10.5) (Sigma-Aldrich) was added. The optical density at 570 nm using a multi-mode microplate reader SpectraMax® i3 (Syngen, Taipei City, Taiwan) was recorded. The results were expressed as a percentage of viability compared to untreated cells. All experiments were performed in triplicate. The reported methyl thiazolyltetrazole (MTT) method was used to study in vitro cytotoxic profile of the s-triazoles 1b-27b to the host cells (L929). Experiments were performed in accordance with the international standard IS0-10993-5:2009. […] The data for acyclic precursors 1a-27a are also included for comparison[39]^,[40].

| Structure (SMILES) | CC30 [µg/mL] |
| --- | --- |
| Cc1nc[nH]c1-c1n[nH]c(=S)n1-c1ccc(I)cc1 [12b, 4–(4-iodophenyl)-5–(4-methylimidazol-5-yl)-1,2,4-triazole-3-thione] | 483.06 (≈ 1260 µM) |
| Cc1nc[nH]c1-c1n[nH]c(=S)n1-c1ccc(N(C)C)cc1 [25b, 5–(4-methylimidazol-5-yl)-4–(4-dimethyloaminophenyl)-1,2,4-triazole-3-thione] | 755.61 (≈ 2520 µM) |
| Cc1nc[nH]c1-c1n[nH]c(=S)n1-c1ccc(Cl)cc1 [6b, 4–(4-chlorophenyl)-5–(4-methylimidazol-5-yl)-1,2,4-triazole-3-thione] | 460.26 (≈ 1580 µM) |
| Cc1ccccc1-n1c(-c2[nH]cnc2C)n[nH]c1=S [14b, 5–(4-methylimidazol-5-yl)-4–(2-methylphenyl)-1,2,4-triazole-3-thione] | 2414.35 (≈ 8900 µM) |
| Cc1nc[nH]c1-c1n[nH]c(=S)n1-c1c(C(C)C)cccc1C(C)C [24b, 4–(2,6-diisopropylphenyl)-5–(4-methylimidazol-5-yl)-1,2,4-triazole-3-thione] | 144.94 (≈ 424 µM) |
| Cc1nc[nH]c1-c1n[nH]c(=S)n1-c1ccccc1Br [7b, 4–(2-bromophenyl)-5–(4-methylimidazol-5-yl)-1,2,4-triazole-3-thione] | 2116.90 (≈ 6300 µM) |
| Cc1nc[nH]c1-c1n[nH]c(=S)n1-c1ccc(Br)cc1 [9b, 4–(4-bromophenyl)-5–(4-methylimidazol-5-yl)-1,2,4-triazole-3-thione] | 225.58 (≈ 671 µM) |
